Results: paper PMC5413024, “Mechanistic insights into the more potent effect of KP-54 compared to KP-10 in vivo” (PLoS ONE, 2017)
In brackets after ≈: the same amount, converted by molar mass. Ends that are not written are not given here.

What was measured:
[1] = men / humans; ref [5], [30] (KP-10), ref [5] (KP-54); cited from earlier work
Excerpt: It should be noted, however that the RIA used to measure KP-54 may also detect shorter breakdown products of this protein that might be biologically inert. It is likely that the lack of GnRH neuronal activation and sustained LH release by KP-10 is mainly due to its instability. It is noteworthy that we failed ...

[2] = from the product data sheets; ref product data sheets (manufacturer); cited from earlier work
Description: KP-10 [human Metastin (45–54) amide, M-2816] was purchased from Sigma-Aldrich. KP-10 consists of the C-terminal 10-amino acids of KP-54. Human KP-54 was synthesized by the Advanced Biotechnology Centre, Imperial College, London, UK. BSA-FITC was purchased from Sigma (A9771). From the product data sheets, the solubility of KP-10 and KP-54 in water is 1mg/ml. We prepared stock solutions in sterile PBS at 100 μM, which is almost ten times lower than the solubility limit set by the manufacturer. The 100 μM stock solution was diluted in sterile PBS and 100 μl of the working solution was injected to ...

[3] = Study 4: pharmacokinetics of plasma kisspeptin after i.p. injection (radioimmunoassay); assay type: in vivo, mouse; conditions: male mice
Description: Male mice received a single i.p. injection of 1 nmol KP-10 or 1 nmol KP-54. 100 μl of blood was collected from the lateral tail vein from groups of mice (n = 4) for each time point (0, 1 min, 2 min, 5 min, 10 min, 30 min, 60 min and 120 min). Terminal bleeds were collected from the vena cava. Blood was mixed with 5 μl EDTA, centrifuged at 10,000 x g for 10 min at 4°C to obtain the plasma fraction, and stored at -20°C until assayed. Kisspeptin concentrations were measured using an established in house competitive radioimmunoassay (RIA, [5]. Briefly, this RIA uses a sheep polyclonal antibody (GQ2), raised against human KP-54, which cross-reacts with human KP-54, KP-14 and KP-10.
3–5 month old wild-type (129S6/SvEv) male mice were used in this study. The mice were housed in open cages on a 12 hour light cycle (lights on at 0700 h) at a controlled temperature (22°C), and were provided with food and water ad libitum. All experiments were performed under the authority of a United Kingdom Home Office Project License and were approved by a Cambridge Animal Ethics Committee.

LH secretion = assay: S1 Fig: plasma LH after i.p. injection of penetratin-extended Kp10; assay type: in vivo, mouse; conditions: single 100 μl i.p. injection, blood at 10 min and 2 hrs, n = 2 per treatment
Description: Supplementary file pone.0176821.s001.tif: S1 Fig Kisspeptin-penetratin treatment. This experiment aimed at facilitating Kp10 to cross the blood-brain-barrier by adding a penetratin extension to the […] end of Kp10, thereby putatively provided with higher permeability. Two penetratin variants were tested: the pen(ala2) residue has a lower protein transduction domain activity than pen-Kp10. […] Each animal received a single 100 μl i.p. injection of either PBS, Kp10, Kp54, Pen-Kp10 or Pen(ala2)-Kp10. Blood samples were collected at 10 min (from tail vein) and 2 hrs (from vena cava upon sacrifice) time points after administration. […] (TIF) Click here for additional data file.

Molecule | half-life in the blood stream in humans [1] | solubility in water [2] | peak (maximum) plasma kisspeptin level ([3]; 1 nmol i.p., RIA (GQ2 antibody), mean ± SEM, n = 4 per time point) | plasma kisspeptin level by 10 min post-injection ([3]; 1 nmol i.p., RIA, n = 4) | time of peak plasma kisspeptin level post-injection ([3]; 1 nmol i.p., RIA, n = 4 per time point) | plasma half-life ([3]; 1 nmol i.p., estimated from RIA plasma levels, RIA recognises all forms of Kp, may include breakdown products) | fraction of the injected peptide entering the bloodstream after intraperitoneal injection ([3]; 1 nmol i.p., assuming a total blood volume of approximately 5 ml) | peak level in the bloodstream, times lower than that of KP-54 ([3]; equimolar 1 nmole i.p., 250 pmol/L vs 12000 pmol/L) | effect of penetratin extension on Kp10-induced LH secretion (LH secretion)
CC(C)C[C@H](NC(=O)CNC(=O)[C@H](Cc1ccccc1)NC(=O)[C@H](CO)NC(=O)[C@H](CC(N)=O)NC(=O)[C@H](Cc1c[nH]c2ccccc12)NC(=O)[C@H](CC(N)=O)NC(=O)[C@@H](N)Cc1ccc(O)cc1)C(=O)N[C@@H](CCCNC(=N)N)C(=O)N[C@@H](Cc1ccccc1)C(N)=O [KP-10, human Metastin (45–54) amide] | 3.8 min | 1000 µg/mL (≈ 768 µM) | 248 ± 9 pmol/L | undetectable | 2 min | about 4 min | around 0.13% | ~50 times | –
NRRMKWKKYYNWNSFGLRF-NH2 [Pen-Kp10] | – | – | – | – | – | – | – | – | does not improve the Kp10-induced LH secretion
NRRMAWAKYYNWNSFGLRF-NH2 [Pen(ala2)-Kp10] | – | – | – | – | – | – | – | – | does not improve the Kp10-induced LH secretion
